Measurements taken from patent US20210346665A1, “CONDUCTIVE MICRONEEDLE PATCH FOR ACTIVE AGENT DELIVERY” (Singapore Health Services Pte Ltd, priority 2018, published 2021).
Counter-ions that a name gives are not always drawn.

Assay: drug loading and release from MeHA MN patches in PBS
Format: physicochemical
Method: The drug loading capabilities of MeHA MNs was investigated by using model drugs of different molecular weights, mainly fluorescein isothiocyanate (FITC), FITC-Dextran and doxorubicin hydrochloride (Dox). The innate ability of the MeHA MN arrays to absorb fluid is taken advantage of to load the drug molecules into the MN tips. All three drugs are dissolved in PBS which were then used to equilibrate MeHA MN patches. After 10 minutes of incubation with the drug solution, the MNs were left to dry in the fumehood (FIG. 14). The amount of drug encapsulated in the MN was determined by immersing the drug loaded MeHA in 1×PBS. By obtaining a 50 μL of the solution at various time points, the fluorescence intensity was measured to determine the drug release profile of the three different drug molecules.
Next, the release profiles of drugs from the MeHA MN patches were examined.

Row | Compound | released from the MN patches (MeHA MN patches, 1×PBS, within 30 minutes) | loading into the MN tips through swelling (MeHA MN, 10 minutes incubation with drug solution in PBS)
1 | COc1cccc2c1C(=O)c1c(O)c3c(c(O)c1C2=O)C[C@@](O)(C(=O)CO)C[C@@H]3O[C@H]1C[C@H](N)[C@H](O)[C@H](C)O1 [Dox, doxorubicin hydrochloride] | 50% | 
2 | fluorescein isothiocyanate [FITC] |  | easily loaded
